This series can be described thus: storage stability of the intermediate. The series is classed as physicochemical.

The values that follow come from patent publication US20090012263A1, “Process for Production of (1,3-Disubstituted Indolyl)-Urea Derivatives, Intermediates Therefor, and Process for Production of the Intermediates” (KOWA COMPANY, LTD., priority 2004, published 2009).

The structures appear in SMILES notation.

As for `O=C(Nc1ccc2c(c1)c(CN1CCCC1)cn2Cc1c(Cl)cccc1Cl)Oc1ccccc1` [Example 2, 5-phenyloxycarbonylamino-3-(1-pyrrolidinylmethyl)-N-[1-(2,6-dichlorophenyl)methyl]-1H-indole], where the note is “room temperature under light shielding, crystalline”, the “can be stored (storage stability)” value is recorded as “over 2 years”.
On to `O=C(Nc1ccc2c(CN3CCCC3)cn(Cc3c(Cl)cccc3Cl)c2c1)Oc1ccccc1` [Example 4, 6-phenyloxycarbonylamino-3-(1-pyrrolidinylmethyl)-N-[1-(2,6-dichlorophenyl)methyl]-1H-indole], for which, where the note is “under refrigeration and light shielding, amorphous powder”, the stability of storage entry is listed as “over 3 months”.
